# “Also recorded” adds a separate entry of the source.
# Assays:
# [1] = system: MDA-CDDP-S4 human in vivo-selected Cisplatin-resistant breast adenocarcinoma cells; assay: Cisplatin-resistant breast adenocarcinoma MDA-CDDP-S4 growth in SCID mice
# Protocol: MDA-CDDP-S4 human in vivo-selected Cisplatin-resistant breast adenocarcinoma cells MDA231/CDDPs4) (4×10^6 cells in 100 μl of PBS) were injected into the fat pad (inside of right leg) of 6-7 weeks old female SCID mice. After the size of tumor reached an approximate volume of 100 mm^3, 7-9 days post tumor cell injection, SEQ ID NO:1 was administered by bolus infusion into the tail vein every other day at 10 mg/kg. Control animals received saline alone for the same period. Antitumor effect of SEQ ID NO:1 was further compared to that of Cisplatin or Taxol alone (FIG. 14A) and in combination as indicated in the FIGS. 14B, 14C and 14D. Cisplatin was administered intravenously once a week for three weeks at a dose of 4 mg/kg. Taxol was administered intravenously once a week for three weeks at a dose of 10 mg/kg. Antitumor activities were estimated by the inhibition of tumor volume, which was measured with caliper and each point represents mean tumor volume calculated from 10 animals per experimental group (FIG. 14C). At the end of the study animals were sacrificed, tumor weights taken and mean tumor weights are indicated. […] As expected, treatment with Cisplatin during the same period was ineffective against Cisplatin-resistant tumor.
# [2] = system: 28S rRNA, 18S rRNA, thioredoxin mRNA, β-actin mRNA, GAPDH mRNA, thioredoxin reductase mRNA, ribosomal protein S9 mRNA, RNase MRP RNA, RNase P RNA and R2 mRNA; assay: Northern blot of other cellular RNAs in A2058 human melanoma cells (specificity); assay type: cell-based; conditions: 0.2 μM, 4 hr with Lipofectin
# Protocol: A2058 human melanoma cells, grown to subconfluency (70-80%), were treated with 0.2 μM of phosphorothioate antisense ODNs for 4 hr in the presence of cationic lipid (Lipofectin reagent, final concentration, 5 μg/ml, GIBCO BRL) and Opti-MEM (GIBCO BRL). Cells were washed once with PBS and incubated for 16 hr in α-MEM medium (GIBCO BRL) containing 10% FBS. Total RNA was prepared in TRIzol reagent (GIBCO BRL) and northern blot analysis was performed as previously described (Hurta and Wright, J. Cell. Biochem. 57: 543-56, 1995) with some modifications. RNA prepared from cells treated with lipofectin alone (Control), SEQ ID NO:1 and scrambled control analogue (SEQ ID NO:1 Scr) were subjected to electrophoresis through 1% formaldehyde agarose gels followed by transfer to nylon membrane. The blots were hybridized with ^32P-labeled probes that detect R1 mRNA, 28S rRNA, 18S rRNA, thioredoxin mRNA, […], GAPDH mRNA, thioredoxin reductase mRNA, ribosomal protein S9 mRNA, RNase MRP RNA, RNase P RNA and R2 mRNA.
# [3] = system: DU145 human prostatic cancer cells; assay: DU145 prostate tumor growth in SCID mice; assay type: in vivo
# Protocol: DU145 human prostatic cancer cells (1×10^7 cells in 100 μl of PBS) were subcutaneously injected into the right flank of 6-7 week old male SCID mice. After the size of the tumors reached an approximate volume of 50 mm^3, 13 days post tumor cell injection, SEQ ID NO:1 was administered by bolus infusion into the tail vein every other day at 10 mg/kg. Control animals received saline alone for the same period. Treatments lasted for 30 days thereafter. Antitumor activities were estimated by the inhibition of tumor volume, which was measured with a caliper on nine different occasions over 30-day period. Each point represents mean tumor volume calculated from 5 animals per experimental group.
# In both experiments, DU145 human prostatic cancer cells (1×10^7 cells in 100 μl of PBS) were subcutaneously injected into the right flank of 6-7 weeks old male SCID mice. After the size of tumor reached an approximate volume of 50 mm^3, 13 (upper panel) or 11 (lower panel) days post tumor cell injection, SEQ ID NO:1 was administered by bolus infusion into the tail vein every other day at 10 mg/kg 15 times (upper panel) or 14 times (lower panel), respectively. Control animals received saline alone for the same period. Antitumor effect of SEQ ID NO:1 was further compared to that of mitoxantrone (novantrone®) alone or in combination. Mitoxantrone was administered intravenously once at the beginning of the treatments at a dose of 2 mg/kg (upper panel) or once a week for four weeks at a reduced dose of 0.8 mg/kg (lower panel). All treatments were stopped at day 42 (upper panel) or 38 (lower panel), respectively. A day after the last treatment, tumors were excised from the animals and their weights were measured.
# [4] = system: PC-3 human prostatic cancer cells; assay: PC-3 prostate tumor growth in SCID mice; assay type: in vivo; conditions: 10 mg/kg i.v. every other day, 36 days, vs saline
# Protocol: PC-3 human prostatic cancer cells (1×10^7 cells in 100 μl of PBS) were subcutaneously injected into the right flank of 6-7 week old male SCID mice. After the tumor size reached an approximate volume of 50 mm^3, 14 days post tumor cell injection, SEQ ID NO:1 was administered by bolus infusion into the tail vein every other day at 10 mg/kg. Control animals received saline alone for the same period. Treatments lasted for 36 days thereafter. Antitumor activities were estimated by the inhibition of tumor volume, which was measured with a caliper on six different occasions over 36-day period. Each point represents mean tumor volume calculated from 5 animals per experimental group.
# human tumors = assay: In vivo primary pharmacology, human tumors in mouse models
# [5] = system: C8161 human metastatic melanoma cells; assay: Experimental metastasis of C8161 cells, in vivo treatment (lung nodules, SCID mice); conditions: 10 mg/kg/48 hr from day 2, 5-7 weeks
# Protocol: B. C8161 human metastatic melanoma cells were seeded into 100 mm tissue culture dishes at a density of 2×10^6 and incubated overnight at 37° C. in α-MBM medium supplemented with 10% FBS. The cells were trypsinized, collected by centrifugation and aliquots were removed from the suspension to determine the cell viability using trypan blue exclusion test. Approximately, 1×10^5 cells suspended in 0.1 ml of PBS were injected into the tail veins of 6-8 week old female SCID mice. Treatment with saline or 10 mg/kg/48 hr SEQ ID NO:1 or SEQ ID NO:1-SCR (scrambled control) was initiated after 2 days. Estimates of the number of lung nodules were made 5-7 weeks later, after excised lungs from individual mice were stained with picric acid dye solution (75% picric acid, 20% formaldehyde, 5% glacial acetic acid), see FIG. 12B. The bars represent the mean number of nodules per mouse with standard error.
substance,measurement,setting,value
5′-CTCTAGCGTCTTAAAGCCGA-3′ (CTCTAGCGTCTTAAAGCCGA; chemistry not given here) [SEQ ID NO:1],tumor weight / tumor growth,"[1]; SCID mice, fat pad, SEQ ID NO:1 10 mg/kg every other day, Cisplatin 4 mg/kg, Taxol 10 mg/kg i.v. weekly for three weeks",significant reduction of tumor weight
same,delay in tumor growth compared with Taxol,[1]; Taxol 10 mg/kg weekly as positive control,superior to the inhibitory effects observed with Taxol
same,expression of other cellular RNAs,[2],significant decrease in R1 mRNA but not other RNAs; also recorded: No effects were observed
same,inhibition of tumor volume,"[3]; SCID mice, 10 mg/kg i.v. every other day, 30 days, vs saline, 10 mg/kg",strong inhibitory effects
same,tumor weight / tumor growth,"[3]; upper panel FIG. 2, SEQ ID NO:1 10 mg/kg every other day 15 times, mitoxantrone 2 mg/kg i.v. once, vs saline",significant delay of tumor growth
same,delay in tumor growth compared with mitoxantrone alone,"[3]; upper panel FIG. 2, mitoxantrone 2 mg/kg once",superior to the inhibitory effects observed with mitoxantrone alone
same,inhibition of tumor volume,[4],strong inhibitory effects
same,efficacy in tumor xenograft experiments,human tumors; SCID mice that are T and B cell deficient,highly effective
same,growth of human tumors in mouse models,human tumors; doses of 1.0 to 10 mg/kg/day,significantly inhibited the growth
same,number of lung nodules,[5],no visible lung nodules

# Reference: patent US20070274947A1, “Antisense Oligonucleotides Directed to Ribonucleotide Reductase R1 and Uses Thereof in the Treatment of Cancer” (priority 2003, published 2007)
